The values below come from patent publication US10301664B2, “Repurposing non-antimicrobial drugs and clinical molecules to treat bacterial infections” (Purdue Research Foundation, priority 2015, dated 2019).

The subject of experiment [1] is MRSA USA300. Put plainly: Library hits: MIC/MBC against MRSA. It is filed as cell-based, Staphylococcus aureus.
For experiment [2], the system named is vancomycin resistant E. faecium ATCC 700221 (VRE). Put plainly: Library hits: MIC/MBC against VRE. It is filed as cell-based.
The test system of experiment [3] is K. pneumoniae ATCC BAA-1705. Put plainly: Library hits: MIC against K. pneumoniae. It is filed as cell-based.
The subject of experiment [4] is A. baumannii ATCC BAA-1605. Put plainly: Library hits: MIC against A. baumannii. The experiment is classed as cell-based.
A further experiment has as its system E. cloacae ATCC BAA-1143. Put plainly: Library hits: MIC against E. cloacae. It is filed as cell-based.
In the next experiment the test system is P. aeruginosa ATCC 15442. Put plainly: Library hits: MIC against P. aeruginosa. It is filed as cell-based.
The next experiment has as its system intracellular MRSA. As to the kind of experiment: Synergy with conventional antimicrobials in infected cell cultures. It is filed as cell-based. The settings on record: compared to monotherapy.
Experiment [5] concerns MRSA USA300 persister cells tolerant to ciprofloxacin. As to the kind of experiment: Killing of S. aureus persister cells. The settings on record: added after ciprofloxacin treatment; 48 h. It is filed as cell-based.
The subject of experiment [6] is MRSA USA300. Put plainly: Mouse model of MRSA systemic infection (lethal). The experiment is classed as in vivo, BALB/c mice. As to conditions: oral 25 mg/kg once daily, three doses. An excerpt: For MRSA systemic infection, neutropenic Female BALB/c mice were inoculated IP with 1×10^9 MRSA USA300.
In a further experiment the test system is A. baumannii. As to the kind of experiment: MIC against G-ve with and without colistin: A. baumannii. It is filed as cell-based.
Another experiment deals with E.. coli O157:H7. As to the kind of experiment: MIC against G-ve with and without colistin: E. coli O157:H7. As to conditions: E. coli O157:H7. The experiment is classed as cell-based.
The test system of another experiment is S. Typhimurium. As to the kind of experiment: MIC against G-ve with and without colistin: S. Typhimurium. It is filed as cell-based.
The subject of the next experiment is K. pneumonia. Put plainly: MIC against G-ve with and without colistin: K. pneumonia. The experiment is classed as cell-based.
A further experiment has as its system P. aeruginosa. Put plainly: MIC against G-ve with and without colistin: P. aeruginosa. The experiment is classed as cell-based.
Setting [7] is: Staphylococcus aureus, read-out: MBC.
Setting [8] is: Staphylococcus aureus, read-out: MIC.

In brackets after ≈: the same amount, converted by molar mass. Read-outs that look alike come from different tables or passages of the source. Numbered stars: 1 amine (or outer) side, 2 acyl side, 3 side chain; on linkers, the order of the positions; unused ones are H or OH. Bridge positions count the residues as written; N and C are the ends. Square brackets hold non-standard residues; d marks the D form. Peptide text beside a SMILES is read from it. I, II: the chains in the order shown. Actinocin(9to1) = Cc1c2oc3c(C)ccc(C(=O)[*:1])c3nc-2c(C(=O)[*:2])c(N)c1=O; NMeV = CN[C@H](C(=O)O)C(C)C; Sar = CNCC(=O)O A value given as a limit tells only on which side of the number the result lay.

Turning to `O=c1[nH]cc(F)c(=O)[nH]1` [5-Fluorouracil], in the experiment on MRSA USA300 [1] (setting [7]), the MBC (as a rule, the lowest tested concentration that kills the bacteria rather than only halting them) worked out at 16 µM (≈ 2.08 µg/mL). Also, the MIC – broadly, the lowest concentration found to suppress growth – in the experiment on MRSA USA300 [1] (setting [8]) was 4 µM (≈ 0.52 µg/mL); in experiment [2] (VRE, read-out: MIC), more than 16 µM.
`CCCCCCCCCOc1ccc2[nH]cc(CCN)c2c1` [5-Nonyloxytryptamine] came in with an MBC in the experiment with MRSA USA300 [1] (Staphylococcus aureus) of 8 µM (≈ 2.42 µg/mL). Further, the minimal inhibitory concentration (MIC) is 4 µM (≈ 1.21 µg/mL) with MRSA USA300 [1] (Staphylococcus aureus) and 8 µM (≈ 2.42 µg/mL) in [2]. Besides, the MIC/MBC is more than 16 µM in experiment [3], 16 µM (≈ 4.84 µg/mL) in experiment [4], 16 µM (≈ 4.84 µg/mL) against E. cloacae ATCC BAA-1143 and more than 16 µM against P. aeruginosa ATCC 15442.
As for `CC(=O)Nc1nnc(S(N)(=O)=O)s1` [Acetazolamide], the MIC with MRSA USA300 [1] (setting [8]) was more than 16 µM; in experiment [2] (VRE, read-out: MIC), 1 µM (≈ 0.222 µg/mL).
Consider `c1ccc(-c2ccc(C(c3ccccc3)n3ccnc3)cc2)cc1` (stereo not drawn) [Bifonazole], for which the MBC in the experiment with MRSA USA300 [1] (setting [7]) was more than 64 µM. For the same compound, the minimal inhibitory concentration (MIC) was 8 µM (≈ 2.48 µg/mL) in the experiment on MRSA USA300 [1] (setting [8]) and more than 16 µM in [2] (VRE, read-out: MIC).
On the same counts, the results for `CCCCCCNC(=O)n1cc(F)c(=O)[nH]c1=O` [Carmofur] are 4 µM (≈ 1.03 µg/mL), 2 µM (≈ 0.515 µg/mL) and more than 16 µM.
`CCN(CC)CCOc1ccc(C(=C(Cl)c2ccccc2)c2ccccc2)cc1` [Clomid]: the MBC in the experiment on MRSA USA300 [1] (setting [7]) worked out at 32 µM (≈ 13 µg/mL). The MIC in the experiment on MRSA USA300 [1] (setting [8]) turned out to be 16 µM (≈ 6.5 µg/mL); in [2] (VRE, read-out: MIC), 16 µM (≈ 6.5 µg/mL).
For `Clc1ccccc1C(c1ccccc1)(c1ccccc1)n1ccnc1` [Clotrimazole], in the experiment with MRSA USA300 [1] (setting [7]), the MBC amounted to 64 µM (≈ 22.1 µg/mL). For the same compound, the MIC with MRSA USA300 [1] (setting [8]) was 4 µM (≈ 1.38 µg/mL); in experiment [2] (VRE, read-out: MIC), more than 16 µM.
Take `Cc1c2oc3c(C)ccc(C(=O)N[C@@H]4C(=O)N[C@H](C(C)C)C(=O)N5CCC[C@H]5C(=O)N(C)CC(=O)N(C)[C@@H](C(C)C)C(=O)O[C@@H]4C)c3nc-2c(C(=O)N[C@@H]2C(=O)N[C@H](C(C)C)C(=O)N3CCC[C@H]3C(=O)N(C)CC(=O)N(C)[C@@H](C(C)C)C(=O)O[C@@H]2C)c(N)c1=O` [Dactinomycin] (I: T[dV]P[Sar][NMeV] / II: T[dV]P[Sar][NMeV]; ester I:1-I:C, II:1-II:C; linker I:N-II:N via Actinocin(9to1)): the values for the MIC (against MRSA USA300 [1] (Staphylococcus aureus); in experiment [2]) were more than 16 µM and 0.5 µM (≈ 0.628 µg/mL), respectively.
In the experiment on MRSA USA300 [1] (Staphylococcus aureus), `COc1cccc2c1C(=O)c1c(O)c3c(c(O)c1C2=O)C[C@@](O)(C(C)=O)C[C@@H]3O[C@H]1C[C@H](N)[C@H](O)[C@H](C)O1` [Daunorubicin] displayed a minimal bactericidal concentration (MBC) of 16 µM (≈ 8.44 µg/mL) and an MIC of 16 µM (≈ 8.44 µg/mL). For the same compound, inhibition of growth in [2] (MIC) required 8 µM (≈ 4.22 µg/mL).
Regarding `Clc1ccc(COC(Cn2ccnc2)c2ccc(Cl)cc2Cl)cc1` (stereo not drawn) [Econazole], in the experiment with MRSA USA300 [1] (setting [7]), the MBC was found to be 32 µM (≈ 12.2 µg/mL). Besides, the MIC in the experiment on MRSA USA300 [1] (setting [8]) is 4 µM (≈ 1.53 µg/mL); in [2] (VRE, read-out: MIC) it was more than 16 µM.
On the same counts, the results for `COc1cccc2c1C(=O)c1c(O)c3c(c(O)c1C2=O)C[C@@](O)(C(=O)CO)C[C@@H]3O[C@H]1C[C@H](N)[C@@H](O)[C@H](C)O1` [Epirubicin] are 64 µM (≈ 34.8 µg/mL), 16 µM (≈ 8.7 µg/mL) and 8 µM (≈ 4.35 µg/mL).
For `O=c1[nH]c(=O)n(C2CCCO2)cc1F` (stereo not drawn) [Ftorafur], the MIC in the experiment on MRSA USA300 [1] (setting [8]) is more than 16 µM; in experiment [2] (VRE, read-out: MIC), 16 µM (≈ 3.2 µg/mL).
Consider `NS(=O)(=O)c1cc(C(=O)O)c(NCc2ccco2)cc1Cl` [Furosemide], for which the MIC in the experiment with MRSA USA300 [1] (setting [8]) was more than 16 µM; in [2] (VRE, read-out: MIC), 4 µM (≈ 1.32 µg/mL).
As for `CC(=O)[C@]1(O)Cc2c(O)c3c(c(O)c2[C@@H](O[C@H]2C[C@H](N)[C@H](O)[C@H](C)O2)C1)C(=O)c1ccccc1C3=O` [Idarubicin], the MBC in the experiment with MRSA USA300 [1] (setting [7]) came out at 4 µM (≈ 1.99 µg/mL). Besides, the MIC in the experiment on MRSA USA300 [1] (setting [8]) was determined as 4 µM (≈ 1.99 µg/mL); in [2] (VRE, read-out: MIC) it was 4 µM (≈ 1.99 µg/mL).
On to `CC(C)NCC(O)c1ccc(O)c(O)c1` (stereo not drawn) [Isoproterenol], for which, in the experiment on MRSA USA300 [1] (setting [7]), the MBC turned out to be 64 µM (≈ 13.5 µg/mL). For the same compound, the MIC in the experiment with MRSA USA300 [1] (setting [8]) is 16 µM (≈ 3.38 µg/mL); in experiment [2] (VRE, read-out: MIC), more than 16 µM.
Consider `CC(C)c1ccc2c(c1)c(SC(C)(C)C)c(CC(C)(C)C(=O)O)n2Cc1ccc(Cl)cc1` [MK-886], for which the MBC with MRSA USA300 [1] (MRSA, read-out: MBC) amounted to 16 µM (≈ 7.55 µg/mL). The MIC in the experiment with MRSA USA300 [1] (MRSA, read-out: MIC) was 8 µM (≈ 3.78 µg/mL); in experiment [2] (VRE, read-out: MIC), 8 µM (≈ 3.78 µg/mL).
Take `Clc1ccc(COC(Cn2ccnc2)c2ccc(Cl)cc2Cl)c(Cl)c1` (stereo not drawn) [Miconazole]: the MBC in the experiment on MRSA USA300 [1] (setting [7]) was 8 µM (≈ 3.33 µg/mL). For the same compound, the MIC with MRSA USA300 [1] (setting [8]) is 4 µM (≈ 1.66 µg/mL); in experiment [2] (VRE, read-out: MIC), more than 16 µM.
For `Clc1ccc(CO/N=C(\Cn2ccnc2)c2ccc(Cl)cc2Cl)c(Cl)c1` [Oxiconazole], the MBC in the experiment on MRSA USA300 [1] (setting [7]) came out at 32 µM (≈ 13.7 µg/mL).
Consider `Cc1nc2ccc(CN(C)c3ccc(C(=O)N[C@@H](CCC(=O)O)C(=O)O)s3)cc2c(=O)[nH]1` [Raltitrexed], for which the MIC in the experiment with MRSA USA300 [1] (setting [8]) is more than 16 µM; in [2] (VRE, read-out: MIC) it was 2 µM (≈ 0.917 µg/mL).
Take `CC/C(=C(\c1ccccc1)c1ccc(OCCN(C)C)cc1)c1ccccc1` [Tamoxifen]: the MBC in the experiment with MRSA USA300 [1] (setting [7]) came out at 16 µM (≈ 5.94 µg/mL). Further, the minimum inhibitory concentration (MIC) in the experiment with MRSA USA300 [1] (setting [8]) was 16 µM (≈ 5.94 µg/mL); in experiment [2] (VRE, read-out: MIC), more than 16 µM.
`CN(C)CCOc1ccc(/C(=C(/CCCl)c2ccccc2)c2ccccc2)cc1` [Toremifene]: the MBC in the experiment with MRSA USA300 [1] (setting [7]) stood at 16 µM (≈ 6.5 µg/mL). In addition, the MIC in the experiment on MRSA USA300 [1] (setting [8]) turned out to be 16 µM (≈ 6.5 µg/mL); in experiment [2] (VRE, read-out: MIC), 16 µM (≈ 6.5 µg/mL).
As to `CSc1nc2cc(Cl)c(Oc3cccc(Cl)c3Cl)cc2[nH]1` [Triclabendazole], in the experiment on MRSA USA300 [1] (setting [7]), the MBC is 32 µM (≈ 11.5 µg/mL). The MIC was 8 µM (≈ 2.88 µg/mL) in the experiment with MRSA USA300 [1] (setting [8]) and more than 16 µM in experiment [2] (VRE, read-out: MIC).
Turning to `CC[C@H]1OC(=O)[C@H](C)[C@@H](O[C@H]2C[C@@](C)(OC)[C@@H](O)[C@H](C)O2)[C@H](C)[C@@H](O[C@@H]2O[C@H](C)C[C@H](N(C)C)[C@H]2O)[C@](C)(O)C[C@@H](C)C(=O)[C@H](C)[C@@H](O)[C@]1(C)O` [erythromycin], the “activity when combined with Auranofin and Ebselen in infected cell cultures” value in the experiment on intracellular MRSA is “synergistic activity”.
Regarding `CC(=O)NC[C@H]1CN(c2ccc(N3CCOCC3)c(F)c2)C(=O)O1` [linezolid], the “effect on number of planktonic persister cells” value in experiment [5] is reported as “minimal impact”. The mice survival result in the experiment on MRSA USA300 [6] is “significantly increased mice survival”.
For `C=C[C@]1(C)C[C@@H](OC(=O)CS[C@@H]2C[C@H]3CC[C@@H](C2)N3C)[C@]2(C)[C@H](C)CC[C@]3(CCC(=O)[C@H]32)[C@@H](C)[C@@H]1O` [retapamulin], in experiment [5], the “effect on number of planktonic persister cells” value was “minimal impact”.
As for colistin, the MICs of colistin in the experiment with A. baumannii stood at 0.25 µg/mL; in the experiment on E.. coli O157:H7, 0.25 µg/mL; against S. Typhimurium, 1 µg/mL; against K. pneumonia it was 0.25 µg/mL; against P. aeruginosa, 0.5 µg/mL.
